From paper PMC11977255 (Communications Biology, 2025) come the findings set out here.

The target of experiment [1] is T1, McyI (Anabaena sp. 90, UniProt Q7WRR2). The experiment can be described thus: isothermal titration calorimetry. In kind it is binding. (In general: In ITC the heat of successive injections is recorded.)
In experiment [2] the target is T1, McyI. Kind of experiment: reductase assay, absorbance at […] nm. Particulars: 1 mM OAA, 0.2 mM NADPH, 1.6 μM enzyme. It counts as biochemical.

T1 sequence (Q7WRR2 1-337 limits assumed): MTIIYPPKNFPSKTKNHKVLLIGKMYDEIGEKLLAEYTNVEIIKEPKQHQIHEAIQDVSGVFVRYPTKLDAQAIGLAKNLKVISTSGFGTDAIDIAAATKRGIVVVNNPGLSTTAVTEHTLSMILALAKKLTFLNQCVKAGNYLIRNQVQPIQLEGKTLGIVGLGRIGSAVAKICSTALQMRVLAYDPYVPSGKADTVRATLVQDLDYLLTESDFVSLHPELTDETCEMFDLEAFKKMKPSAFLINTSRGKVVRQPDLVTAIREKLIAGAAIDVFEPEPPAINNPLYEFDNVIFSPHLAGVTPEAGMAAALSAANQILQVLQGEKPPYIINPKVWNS

Usually Kd stands for the free concentration of one partner at which half of the binding sites on the other are occupied at equilibrium, for simple one-to-one binding. At McyI [1], `NC(=O)C1=CN([C@@H]2O[C@H](COP(=O)(O)OP(=O)(O)OC[C@H]3O[C@@H](n4cnc5c(N)ncnc54)[C@H](OP(=O)(O)O)[C@@H]3O)[C@@H](O)[C@H]2O)C=CC1` [NADPH] showed a Kd of 16 µM.
On to `O=C(O)CC(=O)C(=O)O` [OAA], for which the “reductase assay, absorbance at 340 nm” value at McyI [2] is “The enzyme, OAA, and the nicotinamide cofactor”.
